Test systems include SN12C; Malme-3M; LOX IMVI; ACHN; SF-295; EKVX; HCT-15; SW-620; TK-10; U-251; SF-539; COLO 205; NCI-H522; HOP-92; HT-29; NCI-H460; CCRF-CEM; DU-145.
Common to all, as to experiment: NCI-60 cell line screen, 48 h

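Five concentrations, 48 hours, 96-well plates. Abbreviation: GI50, concentration required for 50% inhibition of growth.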 Calls of active or inactive are those of the source. No stated cut-off is given here; in the data, active = GI50 up to about 1.1 µM and inactive = higher.

Regarding `O=C(c1ccccc1)c1nc2ccc(Cl)cc2c2c1Cc1ccccc1-2`, the GI50 with SN12C, in the assay on Malme-3M, in the assay with LOX IMVI, in the assay on ACHN, in the assay with SF-295 and in the assay with EKVX was > 100 µM (inactive) each time. The GI50 with HCT-15 is > 100 µM; in the assay on SW-620, > 100 µM (inactive); in the assay on TK-10 it was > 100 µM (inactive); in the assay on U-251, > 100 µM (inactive); in the assay with SF-539 it was > 100 µM (inactive); in the assay with COLO 205 it was > 100 µM (inactive). Also, the GI50 in the assay on NCI-H522 is > 100 µM (inactive).
As to `CC1=C(C(=O)NCc2ccccc2)C(/C=C/c2ccccc2)C(C(=O)NCc2ccccc2)=C(C)N1`, the GI50 in the assay with SN12C, in the assay on HOP-92, with Malme-3M, in the assay with HT-29, in the assay on LOX IMVI and in the assay on ACHN was > 100 µM (inactive) in each case. Further, the GI50 in the assay on SF-295 was > 100 µM (inactive); in the assay on NCI-H460 it was > 100 µM (inactive); in the assay on EKVX, > 100 µM (inactive); in the assay with HCT-15, > 100 µM; in the assay on SW-620, > 100 µM (inactive); in the assay with CCRF-CEM, > 100 µM (inactive). Further, the GI50 with TK-10 and in the assay on SF-539 was > 100 µM (inactive) in each case.
Take `C=C1C(=O)OC2C/C(C)=C/CC/C(C)=C/CCC3(COC(C)=O)OC3CC12` (stereo not given): the GI50 in the assay with SN12C was 15.6 µM (inactive); in the assay on Malme-3M it was 12.9 µM (inactive); in the assay on HT-29, 8.32 µM (inactive); in the assay on LOX IMVI it was 9.46 µM (inactive); in the assay on ACHN, 14.1 µM (inactive); with SF-295, 15.3 µM (inactive). For the same compound, the GI50 with NCI-H460 is 12.7 µM (inactive); in the assay with EKVX it was 19.6 µM (inactive); in the assay with HCT-15, 2.81 µM; with SW-620, 2.04 µM (inactive); in the assay on CCRF-CEM it was 2.7 µM (inactive); in the assay on TK-10 it was 7.14 µM (inactive). The GI50 with U-251 is 11.2 µM (inactive); in the assay with SF-539, 2.85 µM (inactive); with COLO 205, 4.55 µM (inactive); in the assay with NCI-H522 it was 1.51 µM (inactive).
As for `CCOC(=O)C1C(c2ccc(Cl)cc2Cl)NC(c2ccc(C)cc2)C(C(=O)OC)S1(=O)=O` (stereo not given), the GI50 in the assay on HOP-92 was 12 µM (inactive); with Malme-3M it was > 100 µM (inactive); in the assay on HT-29, > 100 µM (inactive); in the assay with LOX IMVI, 81.5 µM (inactive); in the assay with ACHN, 80.4 µM (inactive); in the assay on SF-295 it was > 100 µM (inactive). The GI50 is 37.7 µM (inactive) in the assay with NCI-H460; 85.9 µM (inactive) with EKVX; 59.2 µM with HCT-15; > 100 µM (inactive) in the assay with SW-620; > 100 µM (inactive) in the assay on CCRF-CEM; > 100 µM (inactive) with TK-10. Besides, the GI50 with U-251, in the assay on SF-539, with COLO 205 and in the assay with NCI-H522 was > 100 µM (inactive) each time.
Regarding `N#Cc1cccc2c1Nc1ccccc1S2`, the GI50 is > 100 µM (inactive) in the assay on SN12C; 20.2 µM (inactive) with HOP-92; > 100 µM (inactive) in the assay on Malme-3M; > 100 µM (inactive) in the assay on HT-29; > 100 µM (inactive) with LOX IMVI; > 100 µM (inactive) with ACHN. Also, the GI50 is 35.2 µM (inactive) in the assay with SF-295; > 100 µM (inactive) in the assay on NCI-H460; > 100 µM (inactive) in the assay on EKVX; > 100 µM with HCT-15; > 100 µM (inactive) in the assay with SW-620; > 100 µM (inactive) in the assay on CCRF-CEM. Also, the GI50 is > 100 µM (inactive) in the assay with TK-10; 92.7 µM (inactive) in the assay with U-251; 46.7 µM (inactive) with SF-539; > 100 µM (inactive) with COLO 205; > 100 µM (inactive) with NCI-H522.
For `CC(C)N(C(=O)C12C3C4C1C1C2C3C41C(=O)C(C)(C)C)C(C)C` (stereo not given), the GI50 in the assay with SN12C is > 100 µM (inactive); in the assay on Malme-3M it was > 100 µM (inactive); in the assay on HT-29 it was 76.7 µM (inactive); in the assay on LOX IMVI, > 100 µM (inactive); in the assay on ACHN it was > 100 µM (inactive); in the assay with SF-295 it was > 100 µM (inactive). Further, the GI50 with EKVX is > 100 µM (inactive); in the assay on SW-620 it was 47.4 µM (inactive); with CCRF-CEM, 16.1 µM (inactive); in the assay with TK-10, > 100 µM (inactive); with U-251, > 100 µM (inactive); in the assay with SF-539, > 100 µM (inactive). Moreover, the results for the GI50 in the assay with COLO 205 and in the assay with NCI-H522 were > 100 µM (inactive) and 14 µM (inactive), respectively.
Take `O=[N+]([O-])c1ccc(N=P(c2ccccc2)(c2ccccc2)c2ccccc2)n2nnnc12`: the GI50 in the assay on SN12C is 82.4 µM (inactive); in the assay with HOP-92, 22.2 µM (inactive); with Malme-3M, 50.8 µM (inactive); in the assay on HT-29, > 100 µM (inactive); in the assay on LOX IMVI it was > 100 µM (inactive); with ACHN it was 43.5 µM (inactive). The GI50 in the assay with SF-295 was 29 µM (inactive); in the assay on NCI-H460 it was 44.6 µM (inactive); in the assay with EKVX, 58.7 µM (inactive); in the assay on HCT-15 it was > 100 µM; in the assay on SW-620 it was > 100 µM (inactive); with CCRF-CEM, 68.9 µM (inactive). The GI50 is > 100 µM (inactive) with TK-10; 54.8 µM (inactive) in the assay on U-251; 23 µM (inactive) with SF-539; 82 µM (inactive) in the assay with COLO 205; 31 µM (inactive) in the assay with NCI-H522.
In the case of `C=C1CC2OC(=O)C(=C)C2C(O)C2C(=C)CCC12` (stereo not given), the GI50 is 5.73 µM (inactive) in the assay on SN12C; 2.06 µM (inactive) in the assay with HOP-92; 15 µM (inactive) in the assay with Malme-3M; 3.78 µM (inactive) in the assay with HT-29; 9.04 µM (inactive) in the assay on ACHN; 10.9 µM (inactive) with SF-295. Besides, the GI50 with NCI-H460 is 14.7 µM (inactive); in the assay on EKVX, 6.98 µM (inactive); in the assay with SW-620, 3.82 µM (inactive); with CCRF-CEM, 2.24 µM (inactive); with TK-10, 14.8 µM (inactive); in the assay on U-251, 16.8 µM (inactive). Further, the GI50 in the assay with SF-539 was 3.69 µM (inactive); in the assay with COLO 205, 3.78 µM (inactive).
In the case of `O=C(Nc1ccccc1C(=O)NC(=O)c1ccccc1NC(=O)c1ccccc1)c1ccccc1`, the GI50 is 4.51 µM (inactive) in the assay with SN12C; 1.99 µM (inactive) in the assay with HOP-92; 3.34 µM (inactive) in the assay with Malme-3M; 2.22 µM (inactive) in the assay with HT-29; 2.24 µM (inactive) with LOX IMVI; 17.9 µM (inactive) in the assay with ACHN. Further, the GI50 is 10.8 µM (inactive) with SF-295; 7.71 µM (inactive) in the assay with NCI-H460; 8.71 µM (inactive) in the assay on EKVX; 16.9 µM with HCT-15; 4.84 µM (inactive) in the assay with SW-620; 3.91 µM (inactive) with CCRF-CEM. The GI50 was 10.9 µM (inactive) with TK-10, 3.49 µM (inactive) with U-251, 5.09 µM (inactive) in the assay on SF-539 and 1.46 µM (inactive) in the assay on COLO 205.
In the case of `COc1ccccc1NC(=O)NS(=O)(=O)c1ccccc1`, the GI50 with SN12C was > 100 µM (inactive); with HOP-92, > 100 µM (inactive); in the assay on Malme-3M it was > 100 µM (inactive); with HT-29, > 100 µM (inactive); in the assay on LOX IMVI it was > 100 µM (inactive); in the assay on ACHN it was 58.3 µM (inactive). Moreover, the GI50 in the assay with SF-295 is > 100 µM (inactive); with NCI-H460, > 100 µM (inactive); with EKVX, 88.7 µM (inactive); in the assay with SW-620, > 100 µM (inactive); in the assay with TK-10 it was > 100 µM (inactive); with U-251, > 100 µM (inactive). The GI50 in the assay on SF-539 is > 100 µM (inactive); with COLO 205 it was > 100 µM (inactive); in the assay on NCI-H522, 63.7 µM (inactive).
With `C#CCOCn1ccc(=O)[nH]c1=O`, the GI50 with SN12C, in the assay with Malme-3M, in the assay on HT-29, in the assay with LOX IMVI, in the assay with ACHN and in the assay with SF-295 was > 100 µM (inactive) each time. Further, the GI50 is > 100 µM (inactive) in the assay on NCI-H460; > 100 µM (inactive) in the assay with EKVX; > 100 µM in the assay on HCT-15; > 100 µM (inactive) with SW-620; > 100 µM (inactive) in the assay on CCRF-CEM; > 100 µM (inactive) in the assay with TK-10. Also, the GI50 in the assay on DU-145, in the assay on U-251, in the assay on SF-539 and in the assay with COLO 205 was > 100 µM (inactive) in each case.
For `COC(=O)C(=C/c1ccc(OC)cc1)/C(C(=O)O)=C(/C)c1ccccc1`, the GI50 with SN12C, in the assay with HOP-92, with Malme-3M, with HT-29, with LOX IMVI and in the assay with ACHN was > 100 µM (inactive) in each case. Moreover, the GI50 is > 100 µM (inactive) in the assay on SF-295; > 100 µM (inactive) with NCI-H460; > 100 µM (inactive) in the assay with EKVX; > 100 µM with HCT-15; > 100 µM (inactive) in the assay on SW-620; > 100 µM (inactive) in the assay on CCRF-CEM. The GI50 in the assay with TK-10, with U-251, in the assay on SF-539, with COLO 205 and in the assay with NCI-H522 was > 100 µM (inactive) throughout.
Consider `COC(=O)c1onc(C2OC(C)(C)OC2C(O)COC(c2ccccc2)(c2ccccc2)c2ccccc2)c1C(=O)OC` (stereo not given), for which the GI50 is > 100 µM (inactive) in the assay on SN12C; > 100 µM (inactive) in the assay with HOP-92; > 100 µM (inactive) in the assay on Malme-3M; > 100 µM (inactive) in the assay with HT-29; > 100 µM (inactive) in the assay with ACHN; 41.9 µM (inactive) in the assay with EKVX. The GI50 in the assay with HCT-15 was > 100 µM; with SW-620, > 100 µM (inactive); in the assay on CCRF-CEM it was > 100 µM (inactive); in the assay on TK-10 it was > 100 µM (inactive); in the assay on DU-145 it was > 100 µM (inactive); with U-251 it was > 100 µM (inactive). The GI50 is > 100 µM (inactive) in the assay on SF-539, > 100 µM (inactive) with COLO 205 and 65.8 µM (inactive) in the assay on NCI-H522.

These data come from ChEMBL document CHEMBL1201862, “PubChem BioAssay data set” (2004).
